Data: US10149644B2, “Curcumin derivatives for amyloid-β plaque imaging” (The General Hospital Corporation, priority 2008, dated 2018)
“Also recorded” adds a separate entry of the source.

Legend:
Aβ plaques = experiment: Histological staining of Tg2576 mice brain slices; conditions: co-staining with Thioflavin S
Experimental: Tg2576 mice brain tissue was cut into 25 micron slices. The slices were fixed with 4% formalin for 5 min and washed with PBS buffer twice. For Thioflavin S staining the slices were dipped into thioflavin S solution (1.0% in 50% ethanol) for 5 min., then differentiated in 70% ethanol for 5 min., rinsed with distilled water twice and mounted using Vecta shield mounting medium. Similar procedure was used to incubate sliced tissue with our probe. Histological slide was treated with, 0.01% CRANAD-2 in 10% acetone, 40% ethanol and 50% water for 15 min. For co-staining: the procedure was similar. The slices were first stained with thioflavin S, and washed with 70% ethanol for 5 min, then stained with the solution of CRANAD-2.

[1] = BBB penetration and blood/brain clearance; type: in vivo, Balb/c mice; conditions: 10 mg/kg i.v.
Experimental: To test the BBB penetrating ability of the probe, Balb/c mice were used (n=3). […] Mice were perfused with saline solution and the brains were excised at 30 min., 1 h, 2 h, and 4 h after injection. Each brain sample was homogenized with 2.0 ml water and 3.0 ml ethyl acetate, and the homogenate was centrifuged for 5 min at 2,500 rpm. The fluorescence intensities of the ethyl acetate supernatant were recorded. The actual amounts (pmol) of the extracted probe were calculated according to the standard curve of CRANAD-2 in ethyl acetate.
Prior to perfusion, blood samples were taken at each time point to monitor the probe blood clearance. The blood samples were diluted with PBS buffer to 1.0 mL, followed by ethyl acetate (2.0 mL) extraction. The extractions were subjected to fluorescence intensity measurement, and the actual amounts of the probe for each mouse were calculated as the procedure for brain extraction described above.
In addition, to follow the probe clearance the inventors drew blood samples at each time point. […] LC-MS results also confirmed that the major component of the ethyl acetate extraction was CRANAD-2.

Aβ40 aggregates [2] = molecular target: T1, Aβ40 aggregates (Homo sapiens, UniProt P05067); experiment: In vitro Aβ aggregates binding constant measurement
T1 construct: Synthetic amyloid-b protein (1-40) was purchased from rPeptide; purchased rPeptide (Bogart, Ga.)
T1 sequence (P05067 672-711 limits assumed): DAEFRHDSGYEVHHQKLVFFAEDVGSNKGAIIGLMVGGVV
Experimental: […] The Kd binding curve was generated by software Prism 3.0 with nonlinear one-site binding regression.
Binding constant (Kd) of CRANAD-2 towards Aβ aggregates was measured by fluorescence intensity (F.I.) with various concentrations of the prob.

[3] = Fluorescence emission properties of the probes; type: physicochemical
Experimental: Reagents used for synthesis were purchased from Aldrich without further purification. Column chromatography was performed on silica gel (SiliCycle Inc., 60 Å, […]) slurry packed into glass columns. Thioflavin S was purchased from Aldrich. Synthetic amyloid-b protein (1-40) was purchased from rPeptide (Bogart, Ga., 30622) and aggregates for in vitro studies were generated followed the reported procedure. BSA was purchased from Sigma, and human serum was obtained from Invitrogen (type AB). ^1H and ^13C NMR spectra were recorded at 400 MHz and 100 MHz respectively, and are reported in ppm downfield from tetramethylsilane. Fluorescence studies were carried out with F-4500 Fluorescense Spectrophotometer. Fluorescence quantum yields were determined using aqueous solution of Cy5.5-maleimide as a standard (y=0.23). High resolution mass spectra were obtained at the Harvard University, Department of Chemistry Instrumentation Facility. Transgenic Tg2576 mice {45} and littermates were purchased from Taconic Farm, Balb/c mice for BBB penetrating test were obtained from Jackson Laboratory, and the experiment procedure was approved by Massachusetts General Hospital. In vivo imaging was recorded on Kodak Imaging Station 2000MM.
Furthermore, by comparing the fluorescence intensity in methanol, the quantum yield of CRANAD-2 was significant higher than that of curcumin (FIG. 2). […] Additionally, these modifications produced a large stokes shift and improved quantum yield of CRANAD-2. The synthesized compound produced the longest emission and the largest stokes shift among the existing probes for senile plaque detection {3}.

senile plaques = experiment: Ex vivo histological correlation; type: in vivo, mice; conditions: 19-month old transgenic mice, 10 mg/kg i.v.
Experimental: 19 month-old mouse was injected CRANAD-2 (10.0 mg/kg), and was sacrified after perfusion with 4% formaldehyde. The brain was taken and embedded in OCT. For histology, the brain was sliced into 25μ slices, and co-stained with thioflavin S as described above. To obtain ex vivo confirmation of the probe binding, mice at different ages were i.v injected with 10 mg/kg of CRANAD-2 probe, perfused and scarified at 1 h after injection.

Aβ40 aggregates [4] = molecular target: T1, Aβ40 aggregates; experiment: Aβ aggregates detection in solution by fluorescence spectrum; type: binding; conditions: 250 nM compound, 250 nM Aβ40 aggregates, PBS, one minute
Experimental: They then incubated 250 nM of the compounds with 250 nM of Aβ40 aggregates (calculation based on monomer) in PBS for one minute, and then measured the fluorescence spectra of the solutions.

CN(C)c1ccc(/C=C/C2=CC(/C=C/c3ccc(N(C)C)cc3)=[O+][B-](F)(F)O2)cc1 [CRANAD-2]
Staining of Aβ plaques in brain tissue (Aβ plaques): specificity towards Aβ plaques; also recorded: specific staining with Aβ plaques
Clearance from blood [1]: rapid clearance from blood
Clearance from the brain vs blood [1]: significantly slower
BBB penetrating ability ([1]; brain homogenate, fluorescence, HPLC, LC-MS): capability to cross BBB
Affinity to Aβ aggregates (Aβ40 aggregates [2]): high affinity to Aβ aggregates
Kd (Aβ40 aggregates [2]; Aβ40 aggregates in PBS, fluorescence intensity, nonlinear one-site regression, read-out: Binding constant (Kd) towards Aβ aggregates): 38.7 ± 2.77 nM
Stoke shift in PBS ([3]; PBS only): 140 nm
Stoke shift in PBS with Aβ aggregates ([3]; PBS with Aβ aggregates): 70 nm
λmax(em) ([3]; probe alone, methanol (FIG. 2)): 760 nm
λmax(ex) ([3]; probe alone, methanol (FIG. 2)): 640 nm
Labelling of senile plaques ex vivo after i.v. injection (senile plaques): senile plaques were observed
Fluorescence intensity change with Aβ40 aggregates (Aβ40 aggregates [4]): intensity increases
Wavelength shift with Aβ40 aggregates (Aβ40 aggregates [4]): wavelength blue-shifts
